Data from patent US20110312914A1, “CARBON MONOXIDE REMOVAL AGENT” (priority 2009, published 2011).

Legend:
[1] = effect of the cyclodextrin dimer on the urinary excretion of porphyrins, absorbance at 420 nm of urine; type: in vivo; conditions: rat, medical agent containing just the porphyrin (0.5 mM) administered, before Py3CD
Experimental: The influence that the cyclodextrin dimer has on the excretion of the carbon monoxide removal agent in urine was examined. Specifically, each of the porphyrins was administered solitarily into a rat and absorbance at 420 nm, at which each administered porphyrin has a strong absorption band, was measured to examine the amount of the porphyrin excreted into urine. Also, after administration of each porphyrin, the cyclodextrin dimer was administered and the influence thereof was examined. Specifically, an experiment was performed as follows.
Commercially available FeTPPS (made by Frontier Scientific Inc.) and TPPS (made by Tokyo Chemical Industry Co., Ltd.) with the central metal removed from FeTPPS were respectively dissolved separately to a concentration of 0.5 mM in a PBS buffer (pH 7.4) and thereby prepared as medical agents. Also, a Py3CD solution was prepared by dissolving Py3CD to a concentration of 0.6 mM in the PBS buffer (pH 7.4). Further, ultraviolet-visible absorption spectra were measured using the same apparatuses as in EXAMPLE 1.
The medical agent containing FeTPPS was administered continuously to a rat by the syringe pump (1 mL/min). By the same method as in EXAMPLE 1, urine was sampled every 30 minutes from the start of administration and the change with time of the absorbance at 420 nm was examined. […]

[2] = diafiltration test, kidney model using an ultrafiltration membrane (molecular weight cutoff 30,000); type: in vitro ADME
Experimental: The mechanism by which the carbon monoxide removal agent according to the present invention is excreted from blood into urine via kidneys was examined by way of a kidney model using an ultrafiltration membrane. Specifically, an experiment was performed as follows.
FeTPPS, RSA, and Py3CD (procured from the same firms as in EXAMPLE 3) were respectively dissolved in a PBS buffer (pH 7.4) to prepare 0.22 μM solutions. Also, ultraviolet-visible absorption spectra were measured using the same apparatuses as in EXAMPLE 1. As the ultrafiltration membrane, a stirred cell (Model 8050 made by Millipore Corp.) with an ultrafiltration membrane with a molecular weight cutoff of 30,000 attached was used.
Equivalent amounts of the FeTPPS solution and the RSA solution were mixed to prepare an equimolar mixture, and the equimolar mixture solution was placed in the stirred cell that was set above a recovery beaker. While pressurizing with nitrogen gas, a filtrate was recovered at every fixed amount and subject to ultraviolet-visible absorption spectral analysis.
At a point at which 20 mL of the filtrate was recovered, the Py3CD solution was added so that the molar amount of Py3CD was equal to the molar amount of each of FeTPPS and RSA in the residual solution. […]

Serum albumin (RSA) = biological target: T1, Serum albumin (RSA) (Rattus norvegicus, UniProt P02770); test: ultraviolet-visible titration of FeTPPS solution with RSA solution; type: binding; conditions: 5×10^−6 M FeTPPS, PBS buffer pH 7.4
T1 construct: purchased SIGMA; Co., Ltd
T1 sequence (P02770 25-608): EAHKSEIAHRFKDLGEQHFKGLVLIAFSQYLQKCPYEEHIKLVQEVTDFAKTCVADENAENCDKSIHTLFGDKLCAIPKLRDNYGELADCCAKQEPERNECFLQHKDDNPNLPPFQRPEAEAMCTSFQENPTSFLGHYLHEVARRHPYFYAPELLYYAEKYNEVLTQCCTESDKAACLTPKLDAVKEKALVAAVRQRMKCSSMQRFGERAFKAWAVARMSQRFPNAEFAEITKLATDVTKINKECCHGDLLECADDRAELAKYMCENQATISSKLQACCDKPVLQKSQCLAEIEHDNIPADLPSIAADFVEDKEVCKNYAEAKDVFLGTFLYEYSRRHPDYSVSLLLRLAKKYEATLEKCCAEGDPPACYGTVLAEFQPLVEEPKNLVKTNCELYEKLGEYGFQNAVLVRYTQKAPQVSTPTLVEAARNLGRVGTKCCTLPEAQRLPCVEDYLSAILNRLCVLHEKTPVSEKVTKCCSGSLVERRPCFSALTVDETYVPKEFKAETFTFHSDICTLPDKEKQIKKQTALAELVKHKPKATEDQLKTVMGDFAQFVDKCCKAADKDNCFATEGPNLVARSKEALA
Description: Serum albumin (RSA) is a protein component of the highest content in blood and is known to have a property of taking in various hydrophobic molecules. FeTPPS is not an exception and is known to bind strongly to serum albumin (see, for example, V. E. Yushmanov et al, Mag. Res. Imaging, 14, 255-261 (1996), T. T. Tominaga et al, J. Inorg. Biochem., 65, 235-244 (1997), etc.). The effect of inducing urinary excretion of FeTPPS by Py3CD was thus compared with that by RSA. Specifically, an experiment was performed as follows.
FeTPPS was dissolved in a PBS buffer (pH 7.4) to prepare a 5 μM solution, and Py3CD and RSA (made by SIGMA. Co., Ltd.) were separately dissolved in the PBS buffer (pH 7.4) to prepare respective stock solutions. Ultraviolet-visible absorption spectra were measured with the same apparatuses as those used in EXAMPLE 1.
The FeTPPS solution was placed in a cuvette, ultraviolet-visible absorption spectra were measured while adding fixed amounts of the RSA solution to the cuvette, and at a point at which changes reached saturation, ultraviolet-visible absorption spectra were measured while adding the Py3CD solution in place of the RSA solution. FIG. 4(a) is a diagram showing the changes in the ultraviolet-visible absorption spectra and FIG. 4(b) is a titration plot.

Compound | excretion of porphyrin in urine [1] | passage through the ultrafiltration membrane ([2]; FeTPPS held by RSA (equimolar mixture), before Py3CD addition) | passage through the ultrafiltration membrane ([2]; FeTPPS released from RSA by addition of Py3CD and included in Py3CD) | RSA amount at which the spectral changes reach saturation (Serum albumin (RSA)) | number of FeTPPS molecules that can bind to a single RSA molecule (Serum albumin (RSA))
5,10,15,20-tetrakis(4-sulfonatophenyl)porphyrin (II) iron complex [FeTPPS] | not excreted at all in urine | cannot pass through the ultrafiltration membrane | capable of passing through the ultrafiltration membrane | approximately ⅓ | approximately three
O=S(=O)(O)c1ccc(-c2c3nc(c(-c4ccc(S(=O)(=O)O)cc4)c4ccc([nH]4)c(-c4ccc(S(=O)(=O)O)cc4)c4nc(c(-c5ccc(S(=O)(=O)O)cc5)c5ccc2[nH]5)C=C4)C=C3)cc1 [TPPS, reference compound] | not excreted at all in urine |  |  |  | 
